Earlier results as cited in publication PMC8236845.
Like-named read-outs stand apart in the source and are kept apart here. Numbered stars: 1 amine (or outer) side, 2 acyl side, 3 side chain; on linkers, the order of the positions; unused ones are H or OH. Bridge positions count the residues as written; N and C are the ends. Square brackets hold non-standard residues; d marks the D form. Peptide text beside a SMILES is read from it. * marks the point of attachment. pTerphenylCO(4''-OnC5H11) = CCCCCOc1ccc(-c2ccc(-c3ccc(C(=O)*)cc3)cc2)cc1; Orn(4R-OH,5R-OH) = O=C([C@H](C[C@@H](O)[C@@H](O)N[*:3])N[*:1])[*:2]; hTyr(3S-OH,4S-OH) = N[C@H](C(=O)O)[C@H](O)[C@@H](O)c1ccc(O)cc1; Pro(3S-OH,4S-Me) = C[C@H]1CN[C@H](C(=O)O)[C@H]1O; Hyp = O=C(O)[C@@H]1C[C@@H](O)CN1

Experiments:
[1] = human, in vivo, cited from earlier work
SARS-CoV-2 = conditions: 2021, cited from earlier work
SARS-CoV-1 = conditions: cited from earlier work
[2] = test system: Middle Eastern Respiratory Syndroms (MERS) coronaviruses; conditions: cited from earlier work
[3] = used in the context of chemotherapy, cited from earlier work
[4] = cited from earlier work
[5] = test system: SARS-CoV-2-related Pangolin corona virus; conditions: cited from earlier work
[6] = DOGS topical 24 mg/kg, ref Sarasola et al. (2002)

CCCCCOc1ccc(-c2ccc(-c3ccc(C(=O)N[C@H]4C[C@@H](O)[C@@H](O)NC(=O)[C@@H]5[C@@H](O)[C@@H](C)CN5C(=O)[C@H]([C@@H](C)O)NC(=O)[C@H]([C@H](O)[C@@H](O)c5ccc(O)cc5)NC(=O)[C@@H]5C[C@@H](O)CN5C(=O)[C@H]([C@@H](C)O)NC4=O)cc3)cc2)cc1 [Anidulafungin] ({pTerphenylCO(4''-OnC5H11)}-[Orn(4R-OH,5R-OH)]T[Hyp][hTyr(3S-OH,4S-OH)]T[Pro(3S-OH,4S-Me)]; lactam 1-C)
C max (ng/ml) ([1]; iv): 2,500 ng/ml
Cmax ([1]; iv): 2200 nM

Cc1nc(Nc2ncc(C(=O)Nc3c(C)cccc3Cl)s2)cc(N2CCN(CCO)CC2)n1 [Dasatinib]
inhibition of SARS-CoV-2 in cell-culture-based studies (SARS-CoV-2; ref Cagno et al.): failed to inhibit
inhibition of SARS-CoV-1 (SARS-CoV-1): reported to inhibit
inhibition of MERS coronavirus [2]: reported to inhibit

CC(=O)O[C@@]12CO[C@@H]1C[C@H](O)[C@@]1(C)C(=O)[C@H](O)C3=C(C)[C@@H](OC(=O)[C@H](O)[C@@H](NC(=O)OC(C)(C)C)c4ccccc4)C[C@@](O)([C@@H](OC(=O)c4ccccc4)[C@H]21)C3(C)C [Docetaxel]
side effects ([3]; ref Gustafson et al., 2003): moderate to severe side effects
C max ([1]; iv): 933 ng/mL
Cmax ([1]; iv): 1230 nM

C[C@]12CC[C@@H]3c4ccc(OC(=O)c5ccccc5)cc4CC[C@H]3[C@@H]1CC[C@@H]2O [Estradiol benzoate]
inhibition of SARS-COV-2 replication in culture (SARS-CoV-2; ref Yang et al.): reported to inhibit
C max ([1]; im, 5 mg): 0.75 ng/mL
Cmax ([1]; im, 5 mg): 2 nM

Cc1ccc(NC(=O)c2ccc(CN3CCN(C)CC3)cc2)cc1Nc1nccc(-c2cccnc2)n1 [Imatinib]
inhibition of SARS-CoV-2 in cell-culture-based studies (SARS-CoV-2; ref Cagno et al.): failed to inhibit
inhibition of SARS-CoV-1 (SARS-CoV-1): reported to inhibit
inhibition of MERS coronavirus [2]: reported to inhibit

Cc1cn(-c2cc(NC(=O)c3ccc(C)c(Nc4nccc(-c5cccnc5)n4)c3)cc(C(F)(F)F)c2)cn1 [Nilotinib AMN-107, Nilotinib]
IC50 (SARS-CoV-2; ref Cagno et al., read-out: IC50 of inhibition of SARS-CoV-2 infection in vitro): 1.5 to 3 µM
C max (ng/ml) ([1]; po, 300 mg): 1,360 ng/ml
Cmax ([1]; po, 300 mg): 2570 nM

CC[C@H](C)[C@@H]1NC(=O)[C@H](Cc2ccc(O)cc2)NC(=O)[C@@H](N)CSSC[C@@H](C(=O)N2CCC[C@H]2C(=O)N[C@@H](CC(C)C)C(=O)NCC(N)=O)NC(=O)[C@H](CC(N)=O)NC(=O)[C@H](CCC(N)=O)NC1=O [Oxytocin]
C max ([1]; inhaled or intranasal, 44 ug): 0.005 ng/mL
Cmax ([1]; inhaled or intranasal, 44 ug): 5 nM
C max ([1]; iv): 0.005 ng/mL
Cmax ([1]; iv): 5 nM

COc1cc([C@@H]2c3cc4c(cc3[C@H](O)[C@H]3COC(=O)[C@@H]23)OCO4)cc(OC)c1OC [Picropodophyllin]
side effects ([3]; ref Ekman et al., 2016): moderate to severe side effects
C max (ng/ml) ([1]; po, 520 mg): 207–1,035 ng/ml
Cmax ([1]; po, 520 mg): 500 to 2500 nM

CO[C@H]1C[C@H](O[C@@H]2/C(C)=C/C[C@@H]3C[C@@H](C[C@]4(CC[C@H](C)[C@@H](C5CCCCC5)O4)O3)OC(=O)[C@@H]3C=C(C)/C(=N/O)[C@H]4OC/C(=C\C=C\[C@@H]2C)[C@]43O)O[C@@H](C)[C@@H]1O [Selamectin]
Cmax ([4]; DOGS oral 24 mg/kg, ref Sarasola et al. (2002)): 9900 nM
C max [4, 6]: 86.5 ng/mL
Cmax [4, 6]: 110 nM
tolerability ([4]; oral, dogs, ref Sarasola et al., 2002): well tolerated
inhibition of cytopathic effect [5]: inhibited the cytopathic effect
